ChEMBL document CHEMBL4118143, “Discovery of dimethyl pent-4-ynoic acid derivatives, as potent and orally bioavailable DGAT1 inhibitors that suppress body weight in diet-induced mouse obesity model” (Bioorg Med Chem Lett, 2018)
Converted amounts (≈) assume the structure as drawn. Values belong to the compound of their own block, whether it stands above or below them. The source made the active and inactive calls. The calls are words filed in the database; no cut-off is given here.

Columns and labels:
[1] = molecular target: T1, Diacylglycerol O-acyltransferase 1 (Mus musculus, UniProt Q9Z2A7); test: Inhibition of mouse DGAT1 expressed in insect cell membranes using diacylglycerol/[14C]-oleoyl-CoA as substrate preincubated for 10 mins followed by [14C]-oleoyl-CoA addition measured after 15 mins by scintillation counting method
T1 sequence (Q9Z2A7 whole entry): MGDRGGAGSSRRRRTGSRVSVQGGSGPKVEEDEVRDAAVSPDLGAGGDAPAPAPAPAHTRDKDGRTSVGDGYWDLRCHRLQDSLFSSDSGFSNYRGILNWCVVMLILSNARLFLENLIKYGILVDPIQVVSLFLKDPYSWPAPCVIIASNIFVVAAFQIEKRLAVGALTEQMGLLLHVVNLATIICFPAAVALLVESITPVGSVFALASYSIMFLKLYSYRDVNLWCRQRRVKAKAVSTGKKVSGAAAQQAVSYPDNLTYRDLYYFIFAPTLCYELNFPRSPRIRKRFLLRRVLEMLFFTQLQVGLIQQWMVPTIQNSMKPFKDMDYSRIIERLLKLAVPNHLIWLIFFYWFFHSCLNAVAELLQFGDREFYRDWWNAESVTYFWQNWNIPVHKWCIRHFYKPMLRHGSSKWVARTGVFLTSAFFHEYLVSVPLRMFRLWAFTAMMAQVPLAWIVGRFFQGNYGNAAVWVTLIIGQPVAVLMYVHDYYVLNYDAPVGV

[2] = molecular target: T2, Diacylglycerol O-acyltransferase 1 (Homo sapiens, UniProt O75907); test: Inhibition of human DGAT1 expressed in insect cell membranes using diacylglycerol/[14C]-oleoyl-CoA as substrate preincubated for 10 mins followed by [14C]-oleoyl-CoA addition measured after 15 mins by scintillation counting method
T2 sequence (O75907 whole entry): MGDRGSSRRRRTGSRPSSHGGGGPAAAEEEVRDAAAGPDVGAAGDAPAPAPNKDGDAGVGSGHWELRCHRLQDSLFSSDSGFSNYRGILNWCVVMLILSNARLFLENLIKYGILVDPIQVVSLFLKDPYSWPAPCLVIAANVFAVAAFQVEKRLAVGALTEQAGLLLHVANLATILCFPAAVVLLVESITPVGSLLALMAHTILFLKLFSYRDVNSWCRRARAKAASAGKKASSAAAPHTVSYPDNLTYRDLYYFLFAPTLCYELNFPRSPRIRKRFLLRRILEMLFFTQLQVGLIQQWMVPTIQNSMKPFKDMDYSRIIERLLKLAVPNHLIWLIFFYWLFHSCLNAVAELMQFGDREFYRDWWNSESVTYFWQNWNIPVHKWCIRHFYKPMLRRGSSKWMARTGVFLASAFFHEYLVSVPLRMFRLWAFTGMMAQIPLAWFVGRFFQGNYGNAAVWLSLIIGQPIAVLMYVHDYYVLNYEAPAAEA

[3] = molecular target: T3, Diacylglycerol O-acyltransferase 2 (Homo sapiens, UniProt Q96PD7); test: Inhibition of human DGAT2 expressed in insect cell membranes using diacylglycerol/[14C]-oleoyl-CoA as substrate preincubated for 10 mins followed by [14C]-oleoyl-CoA addition measured after 15 mins by scintillation counting method
T3 sequence (Q96PD7 whole entry): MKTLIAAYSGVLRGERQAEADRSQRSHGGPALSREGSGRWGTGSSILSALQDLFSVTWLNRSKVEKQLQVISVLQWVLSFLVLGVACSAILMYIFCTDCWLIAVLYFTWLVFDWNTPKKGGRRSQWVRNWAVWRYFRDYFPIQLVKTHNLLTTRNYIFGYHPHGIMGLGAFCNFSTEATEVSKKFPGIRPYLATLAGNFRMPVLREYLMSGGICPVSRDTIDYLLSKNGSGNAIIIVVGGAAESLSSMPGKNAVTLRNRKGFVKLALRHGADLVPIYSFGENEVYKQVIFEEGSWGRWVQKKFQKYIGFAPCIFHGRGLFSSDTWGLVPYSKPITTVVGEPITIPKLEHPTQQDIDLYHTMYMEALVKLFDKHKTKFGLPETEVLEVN

[4] = molecular target: T2, Diacylglycerol O-acyltransferase 1; test: Inhibition of DGAT1 in human HEK293 cells using [13C18]oleic acid as substrate assessed as decrease in triacylglycerol synthesis preincubated for 15 mins followed by [13C18]oleic acid addition measured after 2 hrs by LC/MS/MS analysis; format: cell-based
[5] = Solubility of the compound at pH 7.4; format: physicochemical; conditions: buffer
[6] = Protein binding in human plasma; format: ADME, cell-free; conditions: read-out: PPB (converted)
[7] = Intrinsic clearance in human liver microsomes; format: ADME, microsome; conditions: read-out: CLH
[8] = Metabolic stability in human liver microsomes assessed as parent compound remaining measured at 60 mins; format: ADME, microsome; conditions: read-out: Stability
[9] = Intrinsic clearance in mouse liver microsomes; format: ADME, microsome; conditions: read-out: CLH
[10] = Metabolic stability in mouse liver microsomes assessed as parent compound remaining measured at 60 mins; format: ADME, microsome; conditions: read-out: Stability
Cytochrome P450 1A2 = molecular target: T4, Cytochrome P450 1A2 (Homo sapiens, UniProt P05177); test: Inhibition of CYP1A2 (unknown origin); format: ADME
T4 sequence (P05177 whole entry): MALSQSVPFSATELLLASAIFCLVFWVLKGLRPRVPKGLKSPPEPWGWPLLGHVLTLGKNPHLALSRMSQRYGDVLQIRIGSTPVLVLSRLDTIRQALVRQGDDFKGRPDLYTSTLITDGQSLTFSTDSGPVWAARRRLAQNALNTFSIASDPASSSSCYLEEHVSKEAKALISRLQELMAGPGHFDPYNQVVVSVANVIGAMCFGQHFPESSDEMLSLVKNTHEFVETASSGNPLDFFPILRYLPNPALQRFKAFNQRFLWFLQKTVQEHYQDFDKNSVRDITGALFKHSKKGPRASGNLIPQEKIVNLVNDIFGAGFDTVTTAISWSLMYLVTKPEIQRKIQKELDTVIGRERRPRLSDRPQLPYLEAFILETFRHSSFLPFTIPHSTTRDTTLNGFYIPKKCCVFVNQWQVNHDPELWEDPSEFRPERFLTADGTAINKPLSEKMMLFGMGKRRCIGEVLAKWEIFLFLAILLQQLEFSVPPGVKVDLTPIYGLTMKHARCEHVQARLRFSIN

Cytochrome P450 2C9 = Cytochrome P450 2C9 (Homo sapiens, UniProt P11712); test: Inhibition of CYP2C9 (unknown origin); format: ADME
Sequence of Cytochrome P450 2C9 (P11712 whole entry): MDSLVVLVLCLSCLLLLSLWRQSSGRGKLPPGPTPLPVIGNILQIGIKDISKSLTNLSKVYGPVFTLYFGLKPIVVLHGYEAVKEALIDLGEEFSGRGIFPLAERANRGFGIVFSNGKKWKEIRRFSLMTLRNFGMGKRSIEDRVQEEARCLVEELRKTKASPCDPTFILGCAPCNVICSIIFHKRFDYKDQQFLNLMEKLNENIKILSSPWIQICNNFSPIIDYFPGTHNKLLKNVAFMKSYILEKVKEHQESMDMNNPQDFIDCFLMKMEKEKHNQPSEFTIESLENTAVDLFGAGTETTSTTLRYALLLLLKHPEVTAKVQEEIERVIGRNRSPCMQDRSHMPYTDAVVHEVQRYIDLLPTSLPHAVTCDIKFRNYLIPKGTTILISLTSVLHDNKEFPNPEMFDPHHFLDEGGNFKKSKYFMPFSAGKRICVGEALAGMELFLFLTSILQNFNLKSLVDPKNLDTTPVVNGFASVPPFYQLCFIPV

Cytochrome P450 2C19 = Cytochrome P450 2C19 (Homo sapiens, UniProt P33261); test: Inhibition of CYP2C19 (unknown origin); format: ADME
Sequence of Cytochrome P450 2C19 (P33261 whole entry): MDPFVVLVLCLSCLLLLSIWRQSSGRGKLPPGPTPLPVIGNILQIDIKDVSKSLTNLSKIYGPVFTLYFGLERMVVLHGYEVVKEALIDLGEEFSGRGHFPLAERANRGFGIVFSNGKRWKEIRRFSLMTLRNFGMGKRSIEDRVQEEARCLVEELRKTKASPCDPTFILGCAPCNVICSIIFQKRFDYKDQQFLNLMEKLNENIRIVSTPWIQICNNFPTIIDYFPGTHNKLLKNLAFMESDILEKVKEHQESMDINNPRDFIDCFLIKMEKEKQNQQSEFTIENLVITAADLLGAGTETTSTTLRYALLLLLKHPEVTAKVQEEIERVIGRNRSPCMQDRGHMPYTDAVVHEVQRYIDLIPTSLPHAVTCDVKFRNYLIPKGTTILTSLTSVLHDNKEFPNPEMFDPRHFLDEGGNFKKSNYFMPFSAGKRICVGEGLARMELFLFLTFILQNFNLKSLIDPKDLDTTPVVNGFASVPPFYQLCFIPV

Cytochrome P450 2D6 = Cytochrome P450 2D6 (Homo sapiens, UniProt P10635); test: Inhibition of CYP2D6 (unknown origin); format: ADME
Sequence of Cytochrome P450 2D6 (P10635 whole entry): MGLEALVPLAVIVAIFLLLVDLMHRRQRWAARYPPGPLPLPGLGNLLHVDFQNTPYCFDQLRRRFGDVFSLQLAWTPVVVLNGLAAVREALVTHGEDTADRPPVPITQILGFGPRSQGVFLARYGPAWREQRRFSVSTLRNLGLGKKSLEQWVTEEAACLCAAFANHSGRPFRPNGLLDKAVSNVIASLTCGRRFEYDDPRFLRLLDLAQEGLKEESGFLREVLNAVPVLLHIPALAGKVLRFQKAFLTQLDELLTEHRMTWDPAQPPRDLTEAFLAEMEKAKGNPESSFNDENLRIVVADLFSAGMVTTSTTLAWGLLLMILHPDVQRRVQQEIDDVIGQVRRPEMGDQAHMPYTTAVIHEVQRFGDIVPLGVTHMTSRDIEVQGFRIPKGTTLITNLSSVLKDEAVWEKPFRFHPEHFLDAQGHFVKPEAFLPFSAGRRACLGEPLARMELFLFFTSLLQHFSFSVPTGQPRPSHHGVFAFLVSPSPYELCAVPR

Cytochrome P450 3A4 = Cytochrome P450 3A4 (Homo sapiens, UniProt P08684); test: Inhibition of CYP3A4 (unknown origin); format: ADME
Sequence of Cytochrome P450 3A4 (P08684 whole entry): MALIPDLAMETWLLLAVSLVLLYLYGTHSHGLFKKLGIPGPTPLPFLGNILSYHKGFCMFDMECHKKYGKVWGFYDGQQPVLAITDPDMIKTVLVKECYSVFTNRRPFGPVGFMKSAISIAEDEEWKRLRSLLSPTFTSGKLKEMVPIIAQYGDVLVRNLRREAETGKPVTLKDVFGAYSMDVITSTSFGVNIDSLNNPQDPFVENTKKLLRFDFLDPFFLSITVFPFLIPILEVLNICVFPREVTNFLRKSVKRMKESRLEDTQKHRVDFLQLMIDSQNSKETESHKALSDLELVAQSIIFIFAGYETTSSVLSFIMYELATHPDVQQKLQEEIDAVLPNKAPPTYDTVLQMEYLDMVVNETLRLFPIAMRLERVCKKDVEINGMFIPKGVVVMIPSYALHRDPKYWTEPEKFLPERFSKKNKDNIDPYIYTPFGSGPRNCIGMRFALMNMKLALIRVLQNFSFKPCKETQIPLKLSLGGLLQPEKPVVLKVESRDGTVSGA

[11] = Clearance in Sprague-Dawley rat at 0.5 mg/kg, iv; format: ADME, organism-based; conditions: in vivo
[12] = Volume of distribution at steady state in Sprague-Dawley rat at 0.5 mg/kg, iv; format: ADME, organism-based; conditions: in vivo, read-out: Vdss
[13] = Cmax in Sprague-Dawley rat at 10 mg/kg, po; format: ADME, organism-based; set-up: dose 10 mg/kg, route oral; conditions: in vivo
[14] = Tmax in Sprague-Dawley rat at 10 mg/kg, po; format: ADME, organism-based; conditions: in vivo
[15] = AUC in Sprague-Dawley rat at 10 mg/kg, po; format: ADME, organism-based; conditions: in vivo
[16] = Oral bioavailability in Sprague-Dawley rat at 10 mg/kg; format: ADME, organism-based; conditions: in vivo
[17] = Clearance in CD1 mouse at 0.5 mg/kg, iv; format: ADME, organism-based; conditions: in vivo
[18] = Volume of distribution at steady state in CD1 mouse at 0.5 mg/kg, iv; format: ADME, organism-based; conditions: in vivo, read-out: Vdss
[19] = Cmax in CD1 mouse at 10 mg/kg, po; format: ADME, organism-based; set-up: dose 10 mg/kg, route oral; conditions: in vivo
[20] = Tmax in CD1 mouse at 10 mg/kg, po; format: ADME, organism-based; conditions: in vivo
[21] = AUC in CD1 mouse at 10 mg/kg, po; format: ADME, organism-based; conditions: in vivo
[22] = Oral bioavailability in CD1 mouse at 10 mg/kg; format: ADME, organism-based; conditions: in vivo
Mus musculus [23] = test: Inhibition of corn oil-induced plasma triacylglycerol excursion in CD1 mouse at 0.3 to 1 mg/kg administered via oral gavage 30 mins prior to corn oil challenge measured at 2 hrs by lipid tolerance test; format: functional, organism-based
Mus musculus [24] = test: Antiobesity activity in diet-induced obesity C57BL/6 mouse model assessed as reduction in body weight at 10 mg/kg administered via oral gavage as bid for 7 days; format: functional, organism-based
Mus musculus [25] = test: Antiobesity activity in diet-induced obesity C57BL/6 mouse model assessed as reduction in cumulative food intake at 10 mg/kg administered via oral gavage as bid for 7 days relative to vehicle-treated control; format: functional; set-up: scale not given: the % may be the effect or the level left
Mus musculus [26] = test: Hepatotoxicity in diet-induced obesity C57BL/6 mouse model at 10 mg/kg administered via oral gavage as bid for 7 days; format: toxicity, organism-based; conditions: in vivo, 168 h

IC50 [1]: 14 nM
SMILES: Cc1cc(N2CCOc3ncnc(N)c3C2=O)cc(Cl)c1C#CC(C)(C)CC(=O)O

IC50 [1]: 10 nM
SMILES: CC(C)(C#Cc1c(Cl)cc(N2CCOc3ncnc(N)c3C2=O)cc1Cl)CC(=O)O

IC50 [1]: 58 nM
SMILES: CC(C)(C#Cc1ccc(N2CCOc3ncnc(N)c3C2=O)cc1F)CC(=O)O

IC50 [1]: 11 nM
SMILES: Cc1cc(N2CCOc3ncnc(N)c3C2=O)cc(F)c1C#CC(C)(C)CC(=O)O

IC50 [1]: 96 nM
SMILES: COc1cc(N2CCOc3ncnc(N)c3C2=O)cc(C)c1C#CC(C)(C)CC(=O)O

IC50 [2]: 21 to 28 nM
IC50 [1]: 12 nM
IC50 [3]: > 50000 nM
EC50 [4]: 26 nM
solubility [5]: 110 µM (≈ 44.9 µg/mL)
fraction unbound [6]: 0.139
CLint scaled [7]: < 9.5 mL/min/kg
remaining at 1 h [8]: 97.6%
CLint scaled [9]: < 38 mL/min/kg
remaining at 1 h [10]: 97.9%
IC50 (Cytochrome P450 1A2): 27600 nM
IC50 (Cytochrome P450 2C9): > 100000 nM
IC50 (Cytochrome P450 2C19): 29700 nM
IC50 (Cytochrome P450 2D6): 27200 nM
IC50 (Cytochrome P450 3A4): 45500 nM
clearance [11]: 4.76 mL/min/kg
Vd [12]: 1.12 L/kg
Cmax [13]: 8700 ng/mL
Tmax [14]: 30 min
AUC [15]: 21000 ng·h/mL
bioavailability [16]: 70%
clearance [17]: 39.3 mL/min/kg
Vd [18]: 2.44 L/kg
Cmax [19]: 521 ng/mL
Tmax [20]: 30 min
AUC [21]: 1250 ng·h/mL
bioavailability [22]: 31%
SMILES: Cc1cc(N2CCOc3ncnc(N)c3C2=O)cc(C)c1C#CC(C)(C)CC(=O)O
inhibition (Mus musculus [23]): Active
Activity (Mus musculus [24]): Active
Activity (Mus musculus [25]): 11%
Activity (Mus musculus [26]): Non-Toxic

IC50 [1]: 12 nM
SMILES: CCc1cc(N2CCOc3ncnc(N)c3C2=O)cc(C)c1C#CC(C)(C)CC(=O)O

IC50 [1]: 12 nM
SMILES: CCc1cc(N2CCOc3ncnc(N)c3C2=O)cc(CC)c1C#CC(C)(C)CC(=O)O

More lines, now with the values behind:

SMILES: Cc1cc(C#CC(C)(C)CC(=O)O)ccc1N1CCOc2ncnc(N)c2C1=O
IC50 [1]: 3760 nM

SMILES: CCc1cc(N2CCOc3ncnc(N)c3C2=O)ccc1C#CC(C)(C)CC(=O)O
IC50 [1]: 682 nM

SMILES: COc1cc(N2CCOc3ncnc(N)c3C2=O)ccc1C#CC(C)(C)CC(=O)O
IC50 [1]: 728 nM

SMILES: CC(C)(C#Cc1ccc(N2CCOc3ncnc(N)c3C2=O)cc1OC(F)(F)F)CC(=O)O
IC50 [1]: 92 nM

SMILES: CC(C)(C#Cc1ccc(N2CCOc3ncnc(N)c3C2=O)cc1C(F)(F)F)CC(=O)O
IC50 [1]: 24 nM

SMILES: CC(C)(C#Cc1ccc(N2CCOc3ncnc(N)c3C2=O)cc1)CC(=O)O
clearance [11]: 14.8 mL/min/kg
Vd [12]: 1.06 L/kg
Cmax [13]: 2160 ng/mL
Tmax [14]: 30 min
AUC [15]: 4100 ng·h/mL
bioavailability [16]: 42%

SMILES: CC(C)(C#Cc1ccc(N2CCOc3ncnc(N)c3C2=O)cc1Cl)CC(=O)O
IC50 [1]: 26 nM
